Consider three compounds from patent US20240173302A1, “TREATMENT OF INFLAMMATORY DISEASES” (DIMERIX BIOSCIENCE PTY LTD, priority 2021, published 2024).

Experiment [1] concerns CCR2 in the presence of unlabelled ETAR. Description: Receptor-HIT BRET β-arrestin recruitment assay, CCR2/Rluc8+Barr2/Venus+HA-ETAR. The experiment is classed as cell-based, human. Particulars: HEK293FT cells. A general note: Bioluminescence resonance energy transfer reports proximity on the nanometre scale.
In another experiment the target is T1, ETAR and CCR2 heteromer (Homo sapiens, UniProt P25101+P41597).
T1 construct: expressed in transfected cells; host or cells: HEK293FT
Description: Receptor-HIT BRET β-arrestin recruitment assay, ETAR/Rluc8+Barr2/Venus+CCR2. The experiment is classed as cell-based. Particulars: HEK293FT cells; for hyperactivation of β-arrestin recruitment to ETAR (ligand-induced BRET): both CCL2/MCP-1 and ET-1 present; for agonist-induced β-arrestin recruitment to ETAR (ligand-induced BRET): no antagonist. Here is the method: HEK293FT cells were seeded in 6-well plates at a density of approximately 700,000 cells/well and maintained at 37° C., 5% CO2 in Complete Media (DMEM containing 0.3 mg/ml glutamine, 100 IU/ml penicillin and 100 μg/ml streptomycin (Thermo Fisher)) supplemented with 10% fetal calf serum (FCS; Bovogen). Transient transfections were carried out 24 h after seeding using FuGene6 (Promega) according to manufacturer instructions. 24 h post-transfection, cells were washed with PBS, detached using 0.05% trypsin/0.53 mM EDTA, resuspended in phenol red free Complete Media containing 5% FCS and added to a poly-L-lysine-coated white 96-well microplate (Greiner Bio-One). 48 h post-transfection, bioluminescence resonance energy transfer (BRET) assays were carried out following pre-incubation of cells with EnduRen™ (Promega) at a final concentration of 30 μM, at 37° ° C., 5% CO2 for 2 h. BRET measurements were taken at 37° C. using the CLARIOstar (BMG Labtech). Filtered light emissions were sequentially measured for 1 s in each of the ‘donor wavelength window’ (410-490 nm) and ‘acceptor wavelength window’ (520-620 nm).
For antagonist assays, cells were pre-incubated in EnduRen for 2 h. The antagonists (10 μM) were added and the assay was read for 30 min. Subsequently, the agonists (CXCL8 10 nM, AngII 100 nM) were added and the measurements continued for another 1 h.
The BRET signal observed between interacting proteins is normalized by subtracting the background BRET ratio. This can be done in one of two ways (see Pfleger et al. (2006) Cell Signal 18:1664-1670; Pfleger et al. (2006) Nat Protoc 1:336-344): 1) the ratio of the 520-550 nm emission over the 460-490 nm emission for a cell sample containing only the donor construct is subtracted from the same ratio for a sample containing the interacting acceptor and donor fusion proteins; 2) the ratio of the 520-550 nm emission over the 460-490 nm emission for a cell sample treated with vehicle is subtracted from the same ratio for a second aliquot of the same cell sample treated with ligand. In the following examples, the second calculation will be used and the signal is described as ‘ligand-induced BRET’.
The Receptor-Heteromer Investigation Technology (Receptor-HIT) is an assay configuration that provides insights into receptor complexes (Ayoub et al. (2015) PLOS One 10(3):e0119803). It is also known as GPCR-HIT when assessing GPCRs. It is an assay configuration whereby one receptor (eg. CCR2) is labelled with one component (eg. Renilla luciferase variant Rluc8) of a proximity-based reporter system (eg. BRET), the complementary component of which (eg. yellow fluorescent protein Venus) is fused to a receptor interacting partner (eg. β-arrestin 2). Treatment with a ligand (eg. AngII) selective for the receptor untagged with respect to the BRET assay (eg. hemagglutinin epitope-tagged AT1R; HA-AT1R) results in modulation of the proximity of the BRET-tagged receptor and the interacting partner, resulting in a change in BRET signal that is indicative of functional interaction between the two receptors.

“Also recorded” adds a separate entry of the source.

T1 sequence (P25101 21-427): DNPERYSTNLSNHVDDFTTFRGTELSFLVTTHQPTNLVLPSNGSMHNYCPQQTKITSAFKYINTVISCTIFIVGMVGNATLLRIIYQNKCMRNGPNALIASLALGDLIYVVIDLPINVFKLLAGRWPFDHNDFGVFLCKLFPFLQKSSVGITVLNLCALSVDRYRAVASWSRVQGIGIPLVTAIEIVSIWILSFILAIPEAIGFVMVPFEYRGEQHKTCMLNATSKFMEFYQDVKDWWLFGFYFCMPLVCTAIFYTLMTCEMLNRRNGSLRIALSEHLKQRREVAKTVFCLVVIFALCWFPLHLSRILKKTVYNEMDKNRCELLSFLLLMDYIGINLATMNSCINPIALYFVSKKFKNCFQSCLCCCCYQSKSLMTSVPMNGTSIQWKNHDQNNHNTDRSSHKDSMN
T1 sequence (P41597 whole entry): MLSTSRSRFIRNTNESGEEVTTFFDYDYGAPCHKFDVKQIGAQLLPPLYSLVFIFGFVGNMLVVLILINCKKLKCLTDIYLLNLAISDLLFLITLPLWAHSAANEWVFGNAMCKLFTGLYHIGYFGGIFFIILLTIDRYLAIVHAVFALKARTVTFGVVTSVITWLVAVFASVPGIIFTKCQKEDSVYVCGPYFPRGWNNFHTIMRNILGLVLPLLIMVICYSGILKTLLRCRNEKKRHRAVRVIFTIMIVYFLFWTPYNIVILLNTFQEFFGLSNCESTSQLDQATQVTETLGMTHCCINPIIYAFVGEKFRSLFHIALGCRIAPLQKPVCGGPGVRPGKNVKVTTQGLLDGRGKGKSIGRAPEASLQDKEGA

As for `CCCCC1=NC2(CCCC2)C(=O)N1Cc1ccc(-c2ccccc2S(=O)(=O)Nc2noc(C)c2C)c(COCC)c1` [Sparsentan, 2-[4-[(2-butyl-4-oxo-1,3-diazaspiro[4.4]non-1-en-3-yl)methyl]-2-(ethoxymethyl)phenyl]-N-(4,5-dimethyl-1,2-oxazol-3-yl)benzenesulfonamide], the “increased recruitment of β-arrestin to CCR2 (ligand-induced BRET)” value in experiment [1] (CCL2/MCP-1 and ET-1 present, antagonists 10 μM) is on record as “increased recruitment of β-arrestin is not observed”. For the same compound, the “β-arrestin recruitment to ETAR stimulated with ET-1 (ligand-induced BRET)” value at ETAR and CCR2 heteromer (ET-1 alone, antagonists 10 μM) is “inhibits this signalling independent of CCR2 activation”. The “hyperactivation of β-arrestin recruitment to ETAR (ligand-induced BRET)” value at ETAR and CCR2 heteromer (antagonists 10 μM) is “abrogate the hyperactivation when both CCL2/CMP-1 and ET-1 ligands are present but not cease recruitment of β-arrestin to ETAR”; on ETAR and CCR2 heteromer (antagonists 10 μM, listed as sparsentan), “abrogated”.

Regarding endothelin-1 [ET-1], the “agonist-induced β-arrestin recruitment to ETAR (ligand-induced BRET)” value at ETAR and CCR2 heteromer was “β-arrestin is recruited to ETAR; also recorded: recruit β-arrestin at a low magnitude”.

Regarding “monocyte chemoattractant protein-1 [CCL2/MCP-1]”, the “agonist-induced β-arrestin recruitment to CCR2 (ligand-induced BRET)” value in experiment [1] (no antagonist) was “β-arrestin is recruited to CCR2”. The “agonist-induced β-arrestin recruitment to ETAR (ligand-induced BRET)” value in the experiment with ETAR and CCR2 heteromer is on record as “β-arrestin is recruited to ETAR”; with ETAR and CCR2 heteromer (listed as CCL2), “β-arrestin recruitment to ETAR occurs”; with ETAR and CCR2 heteromer (listed as CCL2/MCP1) it was “β-arrestin is recruited to ETAR”.
